These results are taken from US9730449B2, “Thiazole compound and its use in pest control” (Sumitomo Chemical Company, Limited, priority 2014, dated 2017).

For data set [1], the system named is German cockroaches (Blattella germanica). As to the kind of experiment: whole plant or invertebrate. The text has this:
2 male imagoes of German cockroaches (Blattella germanica) were released in the polyethylene cup, which was then covered with a lid.

For data set [2], the system named is common house mosquito (Culex pipiens pallens). As to the kind of experiment: whole plant or invertebrate. In kind it is in vivo. Conditions: concentration of active ingredients of 3.5 ppm in ion exchange water, final-instar larvae, after 24 hours.
Data set [3] has as its system gambiae sensu stricto (Anopheles gambiae). As to the kind of experiment: whole plant or invertebrate. In kind it is in vivo. The settings on record: 48 h, 167 ppm in acetone, 0.3 μl topically applied to chest back plate of females, 2 days after the topical application. Here is the method:
10 mg of each of the compounds (1a-1), (1a-2), (1a-4), (1a-5), (1a-6), (1a-7), (1a-19), (1a-20), (1a-22), (1a-23), (1a-32), (1a-38), (1a-39), (1a-77), (1b-1), and (1b-2) of the present invention was dissolved in 3 ml of acetone. Test solutions were prepared by diluting each of the above solutions 20-fold with acetone (concentration of active ingredients of 167 ppm). […] The test was performed on 10 imagos per group, after the topical application, the imagos were transferred to a cup, and 5 percent sugar water was given.

In data set [4] the test system is German cockroaches (Blattella germanica). Conditions: 500 ppm, 0.7 ml on filter paper, sucrose bait; male imagoes; after 24 hours.
Data set [5] concerns two-spotted spider mite (Tetranychus urticae). As to the kind of experiment: Test Example 6: kidney bean spray, two-spotted spider mite controlling value. In kind it is in vivo. The settings on record: 500 ppm sprayed on kidney beans; female imagoes; 25° C.; 7 days after the treatment. An excerpt: 10 female imagoes of two-spotted spider mite (Tetranychus urticae) were released on kidney beans immediately after the primary leaf development. The next day, the test solution was sprayed at an amount in which the test solution dripped, using a spray gun. […] Controlling value (%)=(1−the number of surviving female imagoes in a treatment section/the number of surviving female imagoes in a non-treatment section)×100

The subject of data set [6] is diamondback moths (Plutella xylostella). Conditions: 500 ppm test solution, 20 ml scattered on cabbage; second-instar larvae; 25° C.; after 5 days. As for the experimental part: 20 ml of the above-described test solution was scattered on cabbages (Brassicae oleracea) in a third- or fourth-leaf stage. After air-drying the test solution, the overground portion was cut, collected, and accommodated in a polyethylene cup (capacity of 100 ml) together with 5 second-instar larvae of diamondback moths (Plutella xylostella), followed by storing at 25° C.

In data set [7] the test system is common houseflies (Musca domestica). Conditions: 500 ppm, 0.7 ml on filter paper, sucrose bait; female imagoes; after 24 hours.
Source text: 10 female imagoes of common houseflies (Musca domestica) were released in the polyethylene cup, which was then covered with a lid.

Read-outs that look alike come from different tables or passages of the source. Some results are limits rather than exact numbers.

Consider `COc1ccccc1COc1ncc(SC)s1` [Compound 1a-1, 2-(2-methoxybenzyloxy)-5-methylthiothiazole], for which the mortality at 500 ppm in data set [1] (Blattella germanica, 144 h) is 100%. The mortality at 3.5 ppm in data set [2] is ≥ 90%. In addition, the mortality at 167 ppm in data set [3] was ≥ 90%.

For the compound `CSc1cnc(OCc2ccccc2C)s1` [Compound 1a-2], the Mortality in data set [4] is given as 100%.

As for `COc1ccccc1COc1nc(C)c(SC)s1` [Compound 1a-6], in data set [5], the Controlling value was ≥ 90%.

As to `CSc1cnc(OCc2cccnc2)s1` [Compound 1a-9], in data set [6], the Mortality is recorded as ≥ 80%.

In data set [4], `CSc1cnc(OCc2c(C)cccc2F)s1` [Compound 1a-16] came in with a Mortality of 100%.

For the compound `CSc1cnc(OCc2cc(F)ccc2C)s1` [Compound 1a-19], the Mortality in data set [1] (500 ppm, 0.7 ml on filter paper, sucrose bait, male imagoes, after 6 days) is given as 100%.

As for `CSc1cnc(OCc2cscc2C)s1` [Compound 1a-20], the Mortality in data set [4] was determined as 100%.

`COc1ccc(F)cc1COc1ncc(SC)s1` [Compound 1a-23] registered a Mortality in data set [7] of 100%.

Compound `COc1ccc(OC)c(COc2ncc(SC)s2)c1` [Compound 1a-24] had a Mortality in data set [7] of 100%.

In the case of `CSc1cnc(OCc2ccoc2)s1` [Compound 1a-75], the Mortality in data set [7] was determined as 100%.

Take `CCSc1cnc(OCc2ccccc2C)s1` [Compound 1a-201, 2-(2-methylbenzyloxy)-5-ethylthiothiazole]: the mortality at 3.5 ppm in data set [2] was ≥ 90%.

Turning to `COc1ccccc1COc1ncc([S+](C)[O-])s1` (centres unmarked) [Compound 1b-1, 2-(2-methoxybenzyloxy)-5-methylsulfinylthiazole], the mortality at 167 ppm in data set [3] was ≥ 90%.
